Laboratory results as given in patent US20260091026A1, “METHODS OF TREATING INFLAMMATORY DISEASES” (INTERLINE THERAPEUTICS, INC., priority 2023, published 2026).

Tests used:
[1] = test system: THP1-Dual cells, NF-κB pathway (SEAP); assay: THP-1 Dual cell SEAP assay (L18-MDP stimulated); assay type: cell-based; details: Homo sapiens, 10 ng/mL L18-MDP, 20-24 h, SEAP readout, read-out: IFNγ THP1 IC50
How it was run: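 About 25,000 THP1-Dual cells per well were preincubated 30 min with serially diluted compound, then stimulated overnight (20-24 h, 37 °C) with 10 ng/mL L18-MDP (final). NF-κB-driven SEAP in supernatant was read with QUANTI-Blue at OD 620-655 nm after 2 h; % inhibition versus DMSO/L18-MDP wells was fitted by non-linear regression to give IC50.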

RIPK2 (KD)/XIAP (BIR2) = molecular target: T1, RIPK2 (KD)/XIAP (BIR2) (Homo sapiens, UniProt O43353); assay: RIPK2-XIAP binding competition PPI assay (TR-FRET); details: for Emax: 50 nM of GSK583 = -100% activity, read-out: PPI Amax; for IC50: GST-RIPK2 / His-XIAP (BIR2)-avi, 120 min at 23° C.
T1 construct: made in house; host or cells: baculovirus-infected Sf9 cells
T1 sequence (O43353 1-310): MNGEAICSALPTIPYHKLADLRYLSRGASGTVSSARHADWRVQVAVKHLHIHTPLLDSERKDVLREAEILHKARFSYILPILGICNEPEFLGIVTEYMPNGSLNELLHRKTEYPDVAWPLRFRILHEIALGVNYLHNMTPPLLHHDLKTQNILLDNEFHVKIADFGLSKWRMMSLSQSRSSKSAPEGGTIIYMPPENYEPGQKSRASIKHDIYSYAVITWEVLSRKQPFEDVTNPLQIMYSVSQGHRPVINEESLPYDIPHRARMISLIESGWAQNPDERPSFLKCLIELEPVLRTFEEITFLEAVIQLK
How it was run: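 TR-FRET competition between GST-RIPK2 (aa 1-310, 1 nM) and His-XIAP BIR2-avi (aa 152-231, 25 nM), both Sf9-expressed, detected with anti-His-XL665 and anti-GST-Tb in Tris pH 7.5 buffer with MgCl2, DTT and vanadate. Incubation was 120 min at 23 °C; the 665/520 nm ratio was normalized to no inhibitor (0%) and 50 nM GSK583 (−100%).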

SMILES	IC50 [1] [nM]	Emax (RIPK2 (KD)/XIAP (BIR2)) [%]	IC50 (RIPK2 (KD)/XIAP (BIR2)) [nM]
CCn1nc(-c2cnc3cc(OCCO)c(S(=O)(=O)C(C)(C)C)cn23)cc1C(=O)NCc1ncc(C)s1 [Example 126, 3-(6-(tert-butylsulfonyl)-7-(2-hydroxyethoxy)imidazo[1,2-a]pyridin-3-yl)-1-ethyl-N-((5-methylthiazol-2-yl)methyl)-1H-pyrazole-5-carboxamide]	< 100	≥ 80	< 10
CCn1nc(-c2cnc3cc(OCCO)c(S(=O)(=O)C(C)(C)C)cn23)cc1C(=O)NCc1nccs1 [Example 127, 3-(6-(tert-butylsulfonyl)-7-(2-hydroxyethoxy)imidazo[1,2-a]pyridin-3-yl)-1-ethyl-N-(thiazol-2-ylmethyl)-1H-pyrazole-5-carboxamide]	< 100	≥ 80	< 10
CCn1nc(-c2cnc3cc(OCCO)c(S(=O)(=O)C(C)(C)C)cn23)cc1C(=O)NCc1ccsn1 [Example 128, 3-(6-(tert-butylsulfonyl)-7-(2-hydroxyethoxy)imidazo[1,2-a]pyridin-3-yl)-1-ethyl-N-(isothiazol-3-ylmethyl)-1H-pyrazole-5-carboxamide]	< 100	≥ 80	< 10
CCn1nc(-c2cnc3cc(OCCO)c(S(=O)(=O)C(C)(C)C)cn23)cc1C(=O)NCc1cc(C)sn1 [Example 129, 3-(6-(tert-butylsulfonyl)-7-(2-hydroxyethoxy)imidazo[1,2-a]pyridin-3-yl)-1-ethyl-N-((5-methylisothiazol-3-yl)methyl)-1H-pyrazole-5-carboxamide]	< 100	≥ 80	< 10
CCn1nc(-c2cnc3cc(OCCO)c(S(=O)(=O)C(C)(C)C)cn23)cc1C(=O)N[C@H](C)c1ncc(C)s1 [Example 130, (R)-3-(6-(tert-butylsulfonyl)-7-(2-hydroxyethoxy)imidazo[1,2-a]pyridin-3-yl)-1-ethyl-N-(1-(5-methylthiazol-2-yl)ethyl)-1H-pyrazole-5-carboxamide]	< 100	≥ 80	< 10
CCn1nc(-c2cnc3cc(OCCO)c(S(=O)(=O)C(C)(C)C)cn23)cc1C(=O)N[C@@H](C)c1ncc(C)s1 [Example 131, (S)-3-(6-(tert-butylsulfonyl)-7-(2-hydroxyethoxy)imidazo[1,2-a]pyridin-3-yl)-1-ethyl-N-(1-(5-methylthiazol-2-yl)ethyl)-1H-pyrazole-5-carboxamide]	500 to 2500	≥ 80	10 to 100
CCn1nc(-c2cnc3cc(OCCO)c(S(=O)(=O)C(C)(C)C)cn23)cc1C(=O)N[C@H](C)c1cc(C)sn1 [Example 132, (R)-3-(6-(tert-butylsulfonyl)-7-(2-hydroxyethoxy)imidazo[1,2-a]pyridin-3-yl)-1-ethyl-N-(1-(5-methylisothiazol-3-yl)ethyl)-1H-pyrazole-5-carboxamide]	< 100	≥ 80	< 10
CCn1nc(-c2cnc3cc(OCCO)c(S(=O)(=O)C(C)(C)C)cn23)cc1C(=O)N[C@@H](C)c1cc(C)sn1 [Example 133, (S)-3-(6-(tert-butylsulfonyl)-7-(2-hydroxyethoxy)imidazo[1,2-a]pyridin-3-yl)-1-ethyl-N-(1-(5-methylisothiazol-3-yl)ethyl)-1H-pyrazole-5-carboxamide]	500 to 2500	≥ 80	100 to 1000
CCn1nc(-c2cnc3cc(OCCO)c(S(=O)(=O)C(C)(C)C)cn23)cc1C(=O)N[C@H](C)c1cc(C)ccn1 [Example 134, (R)-3-(6-(tert-butylsulfonyl)-7-(2-hydroxyethoxy)imidazo[1,2-a]pyridin-3-yl)-1-ethyl-N-(1-(4-methylpyridin-2-yl)ethyl)-1H-pyrazole-5-carboxamide]	100 to 500	≥ 80	10 to 100
CCn1nc(-c2cnc3cc(OCCO)c(S(=O)(=O)C(C)(C)C)cn23)cc1C(=O)N[C@@H](C)c1cc(C)ccn1 [Example 135, (S)-3-(6-(tert-butylsulfonyl)-7-(2-hydroxyethoxy)imidazo[1,2-a]pyridin-3-yl)-1-ethyl-N-(1-(4-methylpyridin-2-yl)ethyl)-1H-pyrazole-5-carboxamide]	> 2500	≥ 80	> 1000
C[C@@H](NC(=O)c1cc(-c2cnc3cc(OCCO)c(S(=O)(=O)C(C)(C)C)cn23)nn1C1CC1)c1ncccn1 [Example 136, (R)-3-(6-(tert-butylsulfonyl)-7-(2-hydroxyethoxy)imidazo[1,2-a]pyridin-3-yl)-1-cyclopropyl-N-(1-(pyrimidin-2-yl)ethyl)-1H-pyrazole-5-carboxamide]	< 100	≥ 80	< 10
CC(C)n1nc(-c2cnc3cc(OCCO)c(S(=O)(=O)C(C)(C)C)cn23)cc1C(=O)N[C@H](C)c1ncccn1 [Example 137, (R)-3-(6-(tert-butylsulfonyl)-7-(2-hydroxyethoxy)imidazo[1,2-a]pyridin-3-yl)-1-isopropyl-N-(1-(pyrimidin-2-yl)ethyl)-1H-pyrazole-5-carboxamide]	< 100	≥ 80	< 10
COCCn1nc(-c2cnc3cc(OCCO)c(S(=O)(=O)C(C)(C)C)cn23)cc1C(=O)N[C@H](C)c1ncccc1F [Example 138, (R)-3-(6-(tert-butylsulfonyl)-7-(2-hydroxyethoxy)imidazo[1,2-a]pyridin-3-yl)-N-(1-(3-fluoropyridin-2-yl)ethyl)-1-(2-methoxyethyl)-1H-pyrazole-5-carboxamide]	100 to 500	≥ 80	10 to 100
C[C@@H](NC(=O)c1cc(-c2cnc3cc(OCCO)c(S(=O)(=O)C(C)(C)C)cn23)nn1C1COC1)c1ncccc1F [Example 139, (R)-3-(6-(tert-butylsulfonyl)-7-(2-hydroxyethoxy)imidazo[1,2-a]pyridin-3-yl)-N-(1-(3-fluoropyridin-2-yl)ethyl)-1-(oxetan-3-yl)-1H-pyrazole-5-carboxamide]	100 to 500	≥ 80	10 to 100
COc1cc2ncc(-c3cc(C(=O)N[C@H](C)c4ncccc4F)n(C4CN(C(=O)OC(C)(C)C)C4)n3)n2cc1S(=O)(=O)C(C)(C)C [Example 140, tert-butyl (R)-3-(3-(6-(tert-butylsulfonyl)-7-methoxyimidazo[1,2-a]pyridin-3-yl)-5-((1-(3-fluoropyridin-2-yl)ethyl)carbamoyl)-1H-pyrazol-1-yl)azetidine-1-carboxylate]	500 to 2500	≥ 80	10 to 100
COc1cc2ncc(-c3cc(C(=O)N[C@H](C)c4ncccc4F)n(C4CNC4)n3)n2cc1S(=O)(=O)C(C)(C)C [Example 141, (R)-1-(azetidin-3-yl)-3-(6-(tert-butylsulfonyl)-7-methoxyimidazo[1,2-a]pyridin-3-yl)-N-(1-(3-fluoropyridin-2-yl)ethyl)-1H-pyrazole-5-carboxamide]	> 2500	≥ 80	100 to 1000
COc1cc2ncc(-c3cc(C(=O)N[C@H](C)c4ccccn4)n(CCO)n3)n2cc1S(=O)(=O)C(C)(C)C [Example 142, (R)-3-(6-(tert-butylsulfonyl)-7-methoxyimidazo[1,2-a]pyridin-3-yl)-1-(2-hydroxyethyl)-N-(1-(pyridin-2-yl)ethyl)-1H-pyrazole-5-carboxamide]	500 to 2500	≥ 80	10 to 100
COc1cc2ncc(-c3cc(C(=O)N[C@H](C)c4ncccc4F)n(CCO)n3)n2cc1S(=O)(=O)C(C)(C)C [Example 143, (R)-3-(6-(tert-butylsulfonyl)-7-methoxyimidazo[1,2-a]pyridin-3-yl)-N-(1-(3-fluoropyridin-2-yl)ethyl)-1-(2-hydroxyethyl)-1H-pyrazole-5-carboxamide]	100 to 500	≥ 80	10 to 100
COc1cc2ncc(-c3cc(C(=O)N[C@H](C)c4ccccn4)n(CCCO)n3)n2cc1S(=O)(=O)C(C)(C)C [Example 144, (R)-3-(6-(tert-butylsulfonyl)-7-methoxyimidazo[1,2-a]pyridin-3-yl)-1-(3-hydroxypropyl)-N-(1-(pyridin-2-yl)ethyl)-1H-pyrazole-5-carboxamide]	100 to 500	≥ 80	10 to 100
COc1cc2ncc(-c3cc(C(=O)N[C@H](C)c4ncccc4F)n(CCCO)n3)n2cc1S(=O)(=O)C(C)(C)C [Example 145, (R)-3-(6-(tert-butylsulfonyl)-7-methoxyimidazo[1,2-a]pyridin-3-yl)-N-(1-(3-fluoropyridin-2-yl)ethyl)-1-(3-hydroxypropyl)-1H-pyrazole-5-carboxamide]	< 100	≥ 80	10 to 100
COc1cc2ncc(-c3cc(C(=O)N[C@H](C)c4ccccn4)[nH]n3)n2cc1S(=O)(=O)C(C)(C)C [Example 146, (R)-3-(6-(tert-butylsulfonyl)-7-methoxyimidazo[1,2-a]pyridin-3-yl)-N-(1-(pyridin-2-yl)ethyl)-1H-pyrazole-5-carboxamide]	100 to 500	≥ 80	10 to 100
COc1cc2ncc(-c3cc(C(=O)N[C@H](C)c4ncccc4F)n(C4CN(C)C4)n3)n2cc1S(=O)(=O)C(C)(C)C [Example 147, (R)-3-(6-(tert-butylsulfonyl)-7-methoxyimidazo[1,2-a]pyridin-3-yl)-N-(1-(3-fluoropyridin-2-yl)ethyl)-1-(1-methylazetidin-3-yl)-1H-pyrazole-5-carboxamide]	500 to 2500	≥ 80	100 to 1000
